# Data: US9101579B2, “Inhibition of drug resistant cancer cells” (Celgene Corporation, priority 2012, dated 2015)
# “Also recorded” adds a separate entry of the source.
# Legend:
# [1] = system: HCC827 non-small cell lung cancer cell line; experiment: Drug treatment and CellTiter-Glo cell viability assay, emergence of drug-tolerant expanded persisters (DTEP) in HCC827 cells; type: cell-based
# Description: (§1) The M14 melanoma and HCC827 non-small cell lung cancer cell (NSCLC) cell lines were purchased from American Type Culture Collection (ATCC; Manassas, Va.). Cells were cultured at 37° C./5% CO2 in RPMI-1640 medium (ATCC) supplemented with 10% FBS. AZ628 and Erlotnib were purchased from Selleck Chemicals (Houston, Tex.) and reconstituted in DMSO to 20 mM. Romidepsin (Celgene Corporation) was reconstituted in DMSO to 10 μM. All drugs were stored at −30° C.
# (§2) Romidepsin was used at a final concentration of 1 nM for HCC827 cells and 0.5 nM for M14 cells. Conditioned media were replaced with fresh drug-containing media every three days (“continuous Q3D” schedule). The Q3D schedule was evaluated continuously over a period of 27-45 days, and also for shorter durations ranging from 3-21 days.
# (§3) Cell viability was monitored periodically over 27-45 days using CellTiter-Glo (CTG). On select days, an equal volume (1 mL) of CTG was added to each well of the 24-well plates. The plates, wrapped with aluminum foil, were incubated on a shaking platform for 10 minutes. A 200 μL aliquot from each well was transferred to a new well of 96-well plates. The SpectraMax L (Molecular Devices; Sunnyvale, Calif.) was used to measure luminescence.
# Conditioned medium was replaced with fresh drug-containing medium every three days. Starting on day 12, the drug-containing medium also included 1 nM romidepsin. Cell viability was monitored on days 0, 15, and 37 using CellTiter-Glo (CTG).
# [2] = system: M14 melanoma cell line; experiment: Drug treatment and CellTiter-Glo cell viability assay, emergence of drug-tolerant expanded persisters (DTEP) in M14 cells; type: cell-based; details: for emergence of DTEPs, continuous co-treatment: 2 μM AZ628 + 0.5 nM (sub-lethal) romidepsin every 3 days, continuous schedule 45 days, FIG. 1
# Description: as §1, §2, §3
smiles,measurement,setting,value
C#Cc1cccc(Nc2ncnc3cc(OCCOC)c(OCCOC)cc23)c1 [Erlotinib],cell death on treatment with Erlotinib alone,"[1]; NSCLC (HCC827) cells, high concentration (100×IC50; 2 μM) Erlotinib, after 9 days",Massive cell death
Cc1ccc(NC(=O)c2cccc(C(C)(C)C#N)c2)cc1Nc1ccc2ncn(C)c(=O)c2c1 [AZ628],outgrowth of DTPs into DTEPs under continued AZ628 alone,"[2]; M14 cells, continued treatment with AZ628 2 μM every 3 days",yielding a large population of AZ628-resistant cells
same,cell death on treatment with AZ628 alone,"[2]; M14 cells, high concentration (100×IC50; 2 μM) AZ628, after 9 days",Massive cell death
"C/C=C1\NC(=O)[C@H]2CSSCC/C=C/[C@H](CC(=O)N[C@H](C(C)C)C(=O)N2)OC(=O)[C@H](C(C)C)NC1=O [romidepsin, (1S,4S,7Z,10S,16E,21R)-7-ethylidene-4,21-bis(1-methylethyl)-2-oxa-12,13-dithia-5,8,20,23-tetrazabicyclo[8.7.6]tricos-16-ene-3,6,9,19,22-pentone]","emergence of DTEP, reduced romidepsin schedule","[2]; M14 cells treated with 2 μM AZ628, romidepsin 0.5 nM every 3 days for 2 weeks, FIGS. 3A and 3B",prevented the emergence of DTEP
same,number of romidepsin doses sufficient to prevent emergence of DTEP,"[2]; M14 cells treated with 2 μM AZ628, romidepsin 0.5 nM every 3 days, FIGS. 3A and 3B",5 doses
same,"emergence of DTEPs, continuous co-treatment",[2]; M14 cells,prevented the DTEP emergence
same,"emergence of DTEPs, continuous co-treatment","[2]; M14 cells, listed as romidespin",prevented the emergence of DTEPs
same,"DTEP growth, short (6-hour) romidepsin exposure (wash-out)","[2]; M14 cells, 2 μM AZ628, higher romidepsin concentration (0.5, 2 or 10 nM tested), 6-hour exposure on continuous schedule, FIG. 4A",sufficient to prevent DTEP growth
same,Erlotinib-resistant cells after delayed addition of romidepsin,"[1]; HCC827 cells pretreated with 2 μM Erlotinib every 3 days, 1 nM romidepsin added from day 12, viability on days 0, 15, 37, FIG. 5",eliminated Erlotinib-resistant HCC827 cells
same,"emergence of DTEPs, reduced romidepsin schedule","[1]; HCC827 cells treated with 2 μM Erlotinib, romidepsin 1.0 nM every 3 days for 2 weeks, FIG. 3C",prevented the emergence of DTEPs
same,number of romidepsin doses sufficient to prevent emergence of DTEP,"[1]; HCC827 cells treated with 2 μM Erlotinib, romidepsin 1.0 nM every 3 days, FIG. 3C",4 doses
same,"emergence of DTEPs, continuous co-treatment","[1]; HCC827 cells, 2 μM Erlotinib + 1.0 nM (sub-lethal) romidepsin every 3 days, continuous schedule 27 days, FIG. 2",prevented the emergence of DTEPs; also recorded: prevented the DTEP emergence
same,"DTEP growth, short (6-hour) romidepsin exposure (wash-out)","[1]; HCC827 cells, 2 μM Erlotinib, higher romidepsin concentration (1, 5 and 20 nM tested), 6-hour exposure on continuous schedule, FIG. 4B",sufficient to prevent DTEP growth
